Test results from patent publication US7537912B2, “Methods of measuring luminogenic activity with a protected coelenterazine” (Promega Corporation, priority 2001, dated 2009).

What was measured:
[1] = system: CHO cells transfected with pHRL CMV (Renilla luciferase); assay: Live cell assay, signal to background ratio; type: cell-based, Chinese hamster; settings: for Change of luminescence from cell samples after Tergitol NP-9 was added: TERGITOL NP-9 final concentration 1%
Source text: In these examples, the behavior of luminophores and protected luminophores were examined in situ in a variety of cultured cells. Cells were transiently or stably transfected with a plasmid encoding Renilla luciferase. Luminescence was compared between cells contacted with a coelenterazine (VI or VII) or a protected luminophore (IX, XV, or XVI).
Chinese hamster ovary (CHO) cells were maintained in Ham's F-12 media supplemented with 10% fetal bovine serum (FBS). HeLa and 293 cells were maintained in DMEM media supplemented with 10% fetal calf serum (FCS). All cell lines were grown at 37° C. in the presence of 5% CO2. Cells were transiently transfected with either 15 μg pUC19 or pRL-Control plasmid (PROMEGA CORPORATION, E6271 ) at a concentration of 7.5×10^5 cells per 10 cm plate using Tfx-20 (PROMEGA CORP., E2391) or TransFast™ Transfection Reagent (PROMEGA CORP., E2431). The following day, transfections were pooled and split into 48 wells of a white DYNEX 96-well luminometer plate.
The cells thus prepared were then subjected to a variety of assays. Reaction buffers for these assays were prepared using either DMEM or F12 media with FBS or FCS (10% by volume). Coelenterazine VI, coelenterazine VII or one of protected luminophores IX, XV, or XVI was then added to yield a concentration of 60 μM. These buffers were then used for luminescence measurements in the following assays. Luminescence was measured using an ORION luminometer.
Media was aspirated from the cells after 24 or 48 hours following transfection. The cells were washed with 100 μl per well of 1× phosphate buffered saline. Reaction buffer containing either VI or IX was titrated into complete media by half-logs, and these solutions were added to empty wells and to wells containing transfected cells. Luminescence was measured 5 minutes after media replacement. Immediately following the initial measurement, TERGITOL NP-9 (SIGMA CHEMICALS) was added to a final concentration of 1%. Samples were mixed for approximately 15 seconds, and luminescence was integrated over 1 second per well. The luminescence measured from cell samples increased after Tergitol NP-9 was added to samples containing coelenterazine VI or VII.
Autoluminescence was taken as the luminescence measured for samples containing medium and serum alone. The luminescence divided by the autoluminescence was taken as the signal to background ratio (S/B).

[2] = system: Untransfected CHO (which do not naturally produce luciferase); assay: Localization of luminescence, untransfected cells; type: cell-based, Chinese hamster; settings: Table F, 100 μM substrate; for RL (RLU): after addition of purified Renilla luciferase; for Subs (RLU): before exogenous luciferase
Description: (§1) Similarly, 100 μL portions of media (F12) containing 100 μM of either coelenterazine or triacetyl coelenterazine were placed in wells containing cells or wells alone. These wells were then read for 1 sec/well with an ORION Luminometer (BERTHHOLD) immediately following (coelenterazine) and 4 minutes post-addition (triacetyl coelenterazine) (Table F; Subs).
(§2) Thereafter, 0.5 μL of purified Renilla luciferase (3.96×10^−5 M/Reaction (Chemicon) was added to each well. All wells were then read for 1 second/well (Table F; RL).

[3] = system: CHO hRL25 cells (which express luciferase); assay: Localization of luminescence, cells expressing luciferase; type: cell-based, Chinese hamster; settings: 100 μM substrate; for RL (RLU): after addition of purified Renilla luciferase; for Subs (RLU): before exogenous luciferase
Description: (§3) CHO hRL25 cells (which express luciferase) (4.5 mL of (7.5×10^5 cells)/(plate/5×10^9 cells/mL) were resuspended in 5.5 mL media and put into 96 well plates. The next day, the cells were aspirated, washed with 100 μL PBS, and then aspirated again. 100 μL of media (F12) containing no substrate (background) was then added to wells containing no cells. These wells were then read for 1 sec/well with an ORION Luminometer (BERTHHOLD) (Table E; Bkg).
(§4) Similarly, 100 μL portions of media containing 100 μM of either POM-h or coelenterazine-h were placed in wells containing cells or wells alone. These wells were then read for 1 sec/well with an ORION Luminometer (BERTHHOLD) immediately following (coelenterazine) and 10 minutes post-addition (POM-h) (Table E; Subs).
(§5) Thereafter, 0.5 μL of purified Renilla luciferase (3.96×10^−5 M/Reaction (Chemicon) was added to each well. All wells were then read for 1 second/well (Table E; RL).
as §1, §2

Renilla luciferase = molecular target: T1, Renilla luciferase (Renilla reniformis, UniProt P27652); assay: Localization of luminescence, media only wells with and without purified Renilla luciferase; type: biochemical; settings: Table E, no cells, 100 μM substrate
T1 construct: purchased Chemicon Corp
T1 sequence (P27652 1-311): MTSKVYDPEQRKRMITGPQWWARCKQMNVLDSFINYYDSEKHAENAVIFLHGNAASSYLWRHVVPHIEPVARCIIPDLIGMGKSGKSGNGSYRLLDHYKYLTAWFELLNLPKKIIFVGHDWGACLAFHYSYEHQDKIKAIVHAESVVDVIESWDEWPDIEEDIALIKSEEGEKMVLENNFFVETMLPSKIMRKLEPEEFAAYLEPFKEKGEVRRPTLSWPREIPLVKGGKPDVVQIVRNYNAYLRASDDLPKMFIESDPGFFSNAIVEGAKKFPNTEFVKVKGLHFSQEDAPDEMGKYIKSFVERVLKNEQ
Description: as §3, §4, §5

[4] = Table F, hRL2 cells, read immediately (coelenterazine) or 4 minutes post-addition (triacetyl coelenterazine)

Compound	Change of luminescence from cell samples after Tergitol NP-9 was added [1]	Ratios - compound/reference Luminesc. ([1]; reference compound VI, CHO cells transfected with pHRL CMV, 5 minutes after media replacement)	Ratios - compound/reference S/N ([1]; reference compound VI, luminescence divided by autoluminescence)	Ratios - compound/reference Autolum. ([1]; reference compound VI, medium and serum alone)	RL (RLU) [2] [RLU]	Subs (RLU) [2] [RLU]	RL (RLU) ([3]; Table F, hRL2 cells)	Subs (RLU) [3, 4] [RLU]	RL (RLU) (Renilla luciferase; after addition of purified Renilla luciferase)	Subs (RLU) (Renilla luciferase; before luciferase)	RL (RLU) ([3]; Table E, hRL25 cells)	Subs (RLU) ([3]; Table E, hRL25 cells, read immediately (coelenterazine-h) or 10 minutes post-addition (POM-h))
CC(=O)Oc1ccc(Cc2nc3c(Cc4ccccc4)nc(-c4ccc(OC(C)=O)cc4)cn3c2OC(C)=O)cc1 [compound IX, triacetyl-coelenterazine]	dropped almost to the level of autoluminescence	1.5	9.1	0.2	8910	864	229111	224353				
O=c1c(Cc2ccccc2)nc2c(Cc3ccccc3)[nH]c(-c3ccc(O)cc3)cn1-2 [compound VII, coelenterazine-h, reference compound]	increased								278467	763	331381	39342
coelenterazine [compound VI, reference compound]	increased				11930147	6253	110008374	139842				
